The values below come from PubChem BioAssay AID248 (DTP/NCI, 2004).

Where “and” joins values, the source holds several entries; their conditions need not be identical. Equal entries are not always repeated. Toxic doses and inconclusive results are not listed.

This assay deals with L1210 leukemia ip in BDF1 mice, survival T/C. Description: NCI In Vivo Anticancer Drug Screen. Data for tumor model L1210 Leukemia (intraperitoneal) in B6D2F1 (BDF1) mice. The following applies: endpoint: mean survival time, higher = longer survival. In short, it runs like this:
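Mice bearing the transplanted tumor received compound or vehicle. Survival of the treated group was divided by that of the vehicle-treated control group to give the ratio.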

Setting [1] is: dose: 100.0 mg/kg/injection, schedule: Q04DX002 (ip), vehicle: Klucel (hydroxypropylcellulose) (HPC).
[2] abbreviates: dose: 200.0 mg/kg/injection, schedule: Q04DX002 (ip), vehicle: Klucel (hydroxypropylcellulose) (HPC).
[3] abbreviates: dose: 50.0 mg/kg/injection, schedule: Q01DX001 (ip), vehicle: saline.
Setting [4] is: dose: 100.0 mg/kg/injection, schedule: Q01DX001 (ip), vehicle: saline.
The mark [5] stands for this setting: dose: 200.0 mg/kg/injection, schedule: Q01DX001 (ip), vehicle: saline.
The mark [6] stands for this setting: dose: 400.0 mg/kg/injection, schedule: Q01DX001 (ip), vehicle: saline.

`CN(C)N=Nc1ccccc1`: the T/C is 102 % of control (dose: 4.0 mg/kg/injection, schedule: Q03HX008 (ip), vehicle: other); 101 % of control (dose: 4.0 mg/kg/injection, schedule: Q03HX016 (ip), vehicle: other); 105 % of control (dose: 4.0 mg/kg/injection, schedule: Q03HX024 (ip), vehicle: other); 103 % of control (dose: 8.0 mg/kg/injection, schedule: Q03HX008 (ip), vehicle: other); 103 % of control (dose: 8.0 mg/kg/injection, schedule: Q03HX016 (ip), vehicle: other); 108 % of control (dose: 8.0 mg/kg/injection, schedule: Q03HX024 (ip), vehicle: other). Also, the T/C is 102 % of control (dose: 12.5 mg/kg/injection, schedule: Q04DX003 (ip), vehicle: saline with Tween-80); 104 % of control and 106 % of control and 107 % of control (dose: 15.0 mg/kg/injection, schedule: Q01DX015 (ip), vehicle: carboxymethylcellulose (CMC)); 111 % of control (dose: 16.0 mg/kg/injection, schedule: Q01DX005 (iv), vehicle: other); 103 % of control (dose: 16.0 mg/kg/injection, schedule: Q01DX009 (ip), vehicle: other); 107 % of control (dose: 16.0 mg/kg/injection, schedule: Q01DX009 (sc), vehicle: other); 114 % of control (dose: 16.0 mg/kg/injection, schedule: Q03HX008 (ip), vehicle: other). The T/C (dose: 16.0 mg/kg/injection, schedule: Q03HX016 (ip), vehicle: other) was 117 % of control; the T/C (dose: 18.0 mg/kg/injection, schedule: Q01DX015 (ip), vehicle: carboxymethylcellulose (CMC)) is 104 % of control; the T/C (dose: 25.0 mg/kg/injection, schedule: Q04DX003 (ip), vehicle: saline with Tween-80) is 123 % of control; the T/C (dose: 26.0 mg/kg/injection, schedule: Q01DX015 (ip), vehicle: carboxymethylcellulose (CMC)) is 108 % of control; the T/C (dose: 30.0 mg/kg/injection, schedule: Q01DX015 (ip), vehicle: carboxymethylcellulose (CMC)) was 110 % of control and 207 % of control; the T/C (dose: 31.25 mg/kg/injection, schedule: Q01DX001 (ip), vehicle: saline with Tween-80) was 108 % of control. Moreover, the T/C is 109 % of control (dose: 32.0 mg/kg/injection, schedule: Q01DX001 (ip), vehicle: other); 102 % of control (dose: 32.0 mg/kg/injection, schedule: Q01DX001 (sc), vehicle: other); 109 % of control (dose: 32.0 mg/kg/injection, schedule: Q01DX005 (iv), vehicle: other); 122 % of control (dose: 32.0 mg/kg/injection, schedule: Q01DX009 (ip), vehicle: other); 114 % of control (dose: 32.0 mg/kg/injection, schedule: Q01DX009 (sc), vehicle: other); 120 % of control (dose: 32.0 mg/kg/injection, schedule: Q03HX024 (ip), vehicle: other). Besides, the T/C is 102 % of control (dose: 32.0 mg/kg/injection, schedule: Q04DX003 (ip), vehicle: other); 117 % of control (dose: 32.0 mg/kg/injection, schedule: Q04DX003 (ip), vehicle: saline); 107 % of control (dose: 32.0 mg/kg/injection, schedule: Q08DX002 (ip), vehicle: other); 97 % of control (dose: 50.0 mg/kg/injection, schedule: Q01DX001 (ip), vehicle: carboxymethylcellulose (CMC)); 115 % of control (dose: 50.0 mg/kg/injection, schedule: Q04DX003 (ip), vehicle: saline with Tween-80); 119 % of control and 88 % of control (dose: 60.0 mg/kg/injection, schedule: Q01DX015 (ip), vehicle: carboxymethylcellulose (CMC)). Moreover, the T/C (dose: 62.5 mg/kg/injection, schedule: Q01DX001 (ip), vehicle: saline with Tween-80) was 111 % of control; the T/C (dose: 64.0 mg/kg/injection, schedule: Q01DX001 (ip), vehicle: other) was 112 % of control; the T/C (dose: 64.0 mg/kg/injection, schedule: Q01DX001 (sc), vehicle: other) was 102 % of control; the T/C (dose: 64.0 mg/kg/injection, schedule: Q01DX009 (ip), vehicle: other) is 120 % of control; the T/C (dose: 64.0 mg/kg/injection, schedule: Q01DX009 (oral), vehicle: other) was 122 % of control; the T/C (dose: 64.0 mg/kg/injection, schedule: Q04DX003 (ip), vehicle: other) is 114 % of control. Moreover, the T/C (dose: 64.0 mg/kg/injection, schedule: Q08DX002 (ip), vehicle: other) was 101 % of control; the T/C (dose: 100.0 mg/kg/injection, schedule: Q01DX001 (ip), vehicle: carboxymethylcellulose (CMC)) was 93 % of control; the T/C (dose: 100.0 mg/kg/injection, schedule: Q04DX003 (ip), vehicle: saline with Tween-80) is 105 % of control and 117 % of control; the T/C (dose: 128.0 mg/kg/injection, schedule: Q01DX001 (ip), vehicle: other) is 123 % of control; the T/C (dose: 128.0 mg/kg/injection, schedule: Q01DX001 (oral), vehicle: other) was 109 % of control; the T/C (dose: 128.0 mg/kg/injection, schedule: Q01DX001 (sc), vehicle: other) is 112 % of control. The T/C reads like this: (dose: 128.0 mg/kg/injection, schedule: Q01DX009 (oral), vehicle: other) 122 % of control; (dose: 200.0 mg/kg/injection, schedule: Q01DX001 (ip), vehicle: carboxymethylcellulose (CMC)) 123 % of control; (dose: 256.0 mg/kg/injection, schedule: Q01DX001 (sc), vehicle: other) 121 % of control.
Consider `CC(=O)OCC1CCC(NC(=O)NCCF)CC1` (stereo unspecified), for which the T/C is 101 % of control (dose: 50.0 mg/kg/injection, schedule: Q01DX001 (ip), vehicle: saline with Tween-80); 106 % of control (dose: 100.0 mg/kg/injection, schedule: Q01DX001 (ip), vehicle: saline with Tween-80); 95 % of control (dose: 200.0 mg/kg/injection, schedule: Q01DX001 (ip), vehicle: saline with Tween-80).
Take `Cc1c(C(=O)O)nnn1-c1ccc(Cl)cc1Cl`: the T/C reads like this: under setting [1], 97 % of control; under setting [2], 101 % of control.
Take `O=C1c2ccccc2C(=O)c2c1ccc1c(S(=O)(=O)Cl)cccc21`: the T/C (dose: 100.0 mg/kg/injection, schedule: Q04DX002 (ip), vehicle: saline) was 122 % of control; the T/C (dose: 200.0 mg/kg/injection, schedule: Q04DX002 (ip), vehicle: saline) was 97 % of control; the T/C (dose: 400.0 mg/kg/injection, schedule: Q04DX002 (ip), vehicle: saline) was 94 % of control.
`CCCCCCCCCCCCC[As](=O)(O)CCCCCCCCCCCCC`: the T/C runs as follows: under setting [3], 95 % of control; under setting [4], 103 % of control; under setting [5], 101 % of control; under setting [6], 91 % of control.
In the same order, the values of `CCCCCCc1ccc2c(c1)CC(CCCC)C2` (stereo unspecified) are 101 % of control, 104 % of control, 98 % of control and 101 % of control.
As for `O=S(=O)(F)c1cc(Cl)ccc1O`, the T/C runs as follows: under setting [1], 115 % of control; under setting [2], 115 % of control; (dose: 400.0 mg/kg/injection, schedule: Q04DX002 (ip), vehicle: Klucel (hydroxypropylcellulose) (HPC)) 105 % of control.
`Clc1ccc(CN2CCCN(C3CCCCC3)C2C2CCC=CO2)cc1` (stereo unspecified): under setting [4], the T/C was 96 % of control.
`Oc1ccc(OCc2ccccc2)cc1`: the T/C was 110 % of control (dose: 25.0 mg/kg/injection, schedule: Q01DX009 (ip), vehicle: Klucel (hydroxypropylcellulose) (HPC)); 88 % of control (dose: 50.0 mg/kg/injection, schedule: Q01DX009 (ip), vehicle: Klucel (hydroxypropylcellulose) (HPC)); 100 % of control (dose: 100.0 mg/kg/injection, schedule: Q01DX009 (ip), vehicle: Klucel (hydroxypropylcellulose) (HPC)); 103 % of control (dose: 100.0 mg/kg/injection, schedule: Q04DX003 (ip), vehicle: other); 102 % of control (dose: 200.0 mg/kg/injection, schedule: Q04DX003 (ip), vehicle: other); 93 % of control (dose: 400.0 mg/kg/injection, schedule: Q04DX003 (ip), vehicle: other).
For `CC(C)=NC(=O)NO.[Cl][Mn][Cl]`, the T/C runs as follows: (dose: 37.5 mg/kg/injection, schedule: Q01DX009 (ip), vehicle: saline) 105 % of control; (dose: 75.0 mg/kg/injection, schedule: Q01DX001 (ip), vehicle: saline) 91 % of control; (dose: 75.0 mg/kg/injection, schedule: Q01DX009 (ip), vehicle: saline) 111 % of control; (dose: 150.0 mg/kg/injection, schedule: Q01DX001 (ip), vehicle: saline) 104 % of control; (dose: 150.0 mg/kg/injection, schedule: Q01DX009 (ip), vehicle: saline) 105 % of control.
